#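 Values below derive from 48-hour exposures of cells grown in 96-well plates, with endpoints linearly interpolated between the two concentrations bracketing the appropriate inhibition level. GI50 = concentration required for 50% inhibition of growth. TGI: concentration producing complete growth inhibition.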
# Assays:
# Assay in all cases: NCI anticancer screen, dose series, 48 h
# BT-549 breast = test system: BT-549 breast
# UACC-62 melanoma = test system: UACC-62 melanoma
# M14 melanoma = test system: M14 melanoma
# TK-10 renal = test system: TK-10 renal
# MALME-3M melanoma = test system: MALME-3M melanoma
# HOP-92 NSCLC = test system: HOP-92 NSCLC
# NCI-H226 lung = test system: NCI-H226 lung
# HL-60(TB) leukemia = test system: HL-60(TB) leukemia
# MDA-MB-435 = test system: MDA-MB-435
# RPMI-8226 leukemia = test system: RPMI-8226 leukemia
Structure (SMILES),TGI (BT-549 breast) [µM],TGI (UACC-62 melanoma) [µM],TGI (M14 melanoma) [µM],TGI (TK-10 renal) [µM],TGI (MALME-3M melanoma) [µM],TGI (HOP-92 NSCLC) [µM],TGI (NCI-H226 lung) [µM],TGI (HL-60(TB) leukemia) [µM],TGI (MDA-MB-435) [µM],TGI (RPMI-8226 leukemia) [µM],GI50 (BT-549 breast) [µM],GI50 (UACC-62 melanoma) [µM],GI50 (M14 melanoma) [µM],GI50 (TK-10 renal) [µM],GI50 (RPMI-8226 leukemia) [nM],GI50 (MALME-3M melanoma) [µM],GI50 (NCI-H226 lung) [µM],GI50 (HL-60(TB) leukemia) [nM],GI50 (MDA-MB-435) [nM],GI50 (HOP-92 NSCLC) [nM]
CC12CC(C/C1=N/O)C(C)(C)C2 (configuration not stated),> 100,> 100,> 100,> 100,> 100,> 100,> 100,> 100,> 100,,,,,,,,,,,
CNc1ccc(S(=O)Nc2ccccc2)cc1 (configuration not stated),,81.3,,> 100,> 100,,> 100,> 100,> 100,> 100,,,,,,,,,,
Nc1ncc(/C=N/O)c(NCC2(CO)CC(CCc3ccccc3)C2)n1 (configuration not stated),,33.1,,,25.3,30.2,40.1,28,23.8,42.9,,,,,,,,,,
Oc1[nH]c2ccccc2c1/C=c1/cc2c(c(-c3ccc(C(F)(F)F)cc3)n1)=Nc1ccccc1-2,15.7,21.9,17.4,22.9,27.4,,> 100,9.25,10,13.7,4.17,6.32,3.89,5.54,2930,9.14,36.4,3410,403,
CC(C)(C)c1ccc(-c2nnc(-c3cc(C#N)cc(-c4nnc(-c5ccc(C(C)(C)C)cc5)o4)c3)o2)cc1,> 100,> 100,> 100,> 100,> 100,> 100,> 100,,> 100,> 100,,,,,,,,,,
COC(=O)C(NC(=O)CSc1nnc(COc2ccc(Cl)cc2)n1-c1ccccc1)C(C)C (configuration not stated),,36.1,58,36.2,31.9,77.2,33,> 100,43,,,,,,,,,,,
CC(=O)c1ccc(NC(=O)CSc2nc(C)nc3c2sc(=S)n3-c2ccccc2)cc1,,> 3.16,> 3.16,> 3.16,> 3.16,> 3.16,> 3.16,> 3.16,> 3.16,> 3.16,,,,,,,,,,
Cc1ccc2c(c1)CC1(C2=O)[C@H](c2ccccc2)C2C(=O)c3ccc(C)cc3C2[C@H]1c1ccccc1 (some centres not stated),> 100,> 100,> 100,> 100,> 100,> 100,> 100,> 100,> 100,,,,,,,,,,,
N#CCCC1(CCC#N)CCCCCCC(CCC#N)(CCC#N)C(O)C1O (configuration not stated),,,> 100,> 100,> 100,> 100,> 100,,> 100,,,,,,,,,,,
CC12CC(c3ccccc3O1)C(C(=O)Nc1cccc(F)c1)C(=O)N2 (configuration not stated),66.8,> 100,> 100,,> 100,,,> 100,> 100,> 100,,,,,,,,,,
CC1(C)COC(c2c(-c3ccccc3)noc2CS(=O)c2ccccc2)=N1 (configuration not stated),,76.9,> 100,> 100,> 100,,> 100,84.6,,> 100,,,,,,,,,,
CCCCCCOc1ccc(C(=N)N(CCCC)CCCC)c2ccccc12,,3.23,,3.14,,2.6,3.07,3.43,,,,1.6,,1.57,,,1.53,1810,,1070
NC(=S)N/N=C\CC(O)(C(F)(F)F)C(F)(F)F,,> 10,> 10,> 10,> 10,> 10,> 10,> 10,> 10,> 10,,,,,,,,,,
CC(=O)Nc1ccc(C(=O)N2N=C(C)/C(=C/c3ccc(O)cc3)C2=O)cc1,,,,> 100,> 100,,> 100,> 100,,> 100,,,,,,,,,,
CCN(CC)CCN(C)CCc1ccc(Br)cc1,> 100,,33.1,> 100,> 100,> 100,> 100,,> 100,> 100,,,,,,,,,,
OC12CCCCCC1(N1CCOCC1)c1ccccc12 (configuration not stated),,> 100,> 100,> 100,> 100,,> 100,> 100,,> 100,,,,,,,,,,
CNc1ccc(Cl)cc1S(=O)(=O)c1ccccc1[N+](=O)[O-],> 100,> 100,> 100,> 100,> 100,,> 100,> 100,,> 100,,,,,,,,,,
COC(=O)CC(NC(=O)OCc1ccccc1)C(C(=O)OCc1ccccc1)C1(C)OCCO1 (configuration not stated),,59.7,> 100,> 100,> 100,,94.1,62.6,,73.7,,,,,,,,,,
O=C1CC2(CCNCC2)C(=O)N1N1CCOCC1,> 100,> 100,> 100,> 100,> 100,> 100,> 100,> 100,,> 100,,,,,,,,,,
CCOc1ccc(-c2oc(/C=N/NS(=O)(=O)c3ccc(C)cc3)c([N+](=O)[O-])c2-c2ccc(OCC)cc2)cc1,,26,27.7,70.3,37.1,31.5,28.4,> 52.9,,5.12,,,,,,,,,,
CCOC(=O)c1nc2ccccc2nc1NCc1ccc(Cl)cc1Cl,> 100,> 100,> 100,> 100,> 100,> 100,> 100,,> 100,> 100,,,,,,,,,,
Cc1cc(=O)[nH]c(NNC(C#N)c2ccc([N+](=O)[O-])cc2)n1 (configuration not stated),,> 100,> 100,> 100,> 100,> 100,> 100,> 100,,> 100,,,,,,,,,,
CCOC1=C2NC(Cc3ccc(F)cc3)=NC2C(=O)c2ccccc21 (configuration not stated),,63.3,73.4,> 100,55.8,51.6,,22.2,,37.8,,,,,,,,,,
Nc1c(N=Nc2ccc(-c3ccc(N=Nc4c(O)ccc5cc(S(=O)(=O)O)cc(S(=O)(=O)O)c45)cc3)cc2)c(S(=O)(=O)O)cc2cc(S(=O)(=O)O)c(N=Nc3ccccc3)c(O)c12,,> 100,,,> 100,> 100,> 95,> 100,,> 100,,,,,,,,,,

# Source: PubChem BioAssay (NCI)
